# Results published in EP0929544B1, “TRICYCLIC ANTITUMOR COMPOUNDS BEING FARNESYL PROTEIN TRANSFERASE INHIBITORS” (SCHERING CORPORATION, priority 1996, dated 1998).
# Biological target: T1, Farnesyl protein transferase (FPT) (Rattus norvegicus, UniProt Q02293+Q04631)
# T1 construct: Farnesyl protein transferase (FPT) was partially purified from rat brain; from tissue; host or cells: rat brain
# Assay: In vitro enzyme assay: inhibition of farnesyl protein transferase (transfer of [3H]farnesyl from [3H]farnesyl pyrophosphate to Ras-CVLS)
# Type: biochemical
# Conditions: FPT INHIBITION; read-out: FPT IC50
# From the text: 1. In vitro enzyme assays: Inhibition of farnesyl protein transferase and geranylgeranyl protein transferase.
# Farnesyl protein transferase (FPT) was partially purified from rat brain by ammonium sulfate fractionation followed by Q-Sepharose (Pharmacia, Inc.) anion exchange chromatography essentially as described by Yokoyama et al (Yokoyama, K., et al., (1991), A protein geranylgeranyltransferase from bovine brain: Implications for protein prenylation specificity, Proc. Natl. Acad. Sci USA 88: 5302-5306, the disclosure of which is incorporated herein by reference thereto). Human famesyl protein transferase was also expressed in E. coli, using cDNA clones encoding both the a and b subunits. The methods used were similar to those published (Omer, C. et al., (1993), Characterization of recombinant human farnesyl protein transferase: Cloning, expression, famesyl diphosphate binding, and functional homology with yeast prenyl-protein transferases, Biochemistry 32:5167-5176). Human famesyl protein transferase was partially-purified from the soluble protein fraction of E. coli as described above. […] Two forms of val^12-Ha-Ras protein were prepared as substrates for these enzymes, differing in their carboxy terminal sequence. One form terminated in cysteine-valine-leucine-serine (Ras-CVLS) the other in cystein-valine-leucine-leucine (Ras-CVLL). Ras-CVLS is a substrate for the famesyl protein transferase while Ras-CVLL is a substrate for geranylgeranyl protein transferase I. The cDNAs encoding these proteins were constructed so that the proteins contain an amino-terminal extension of 6 histidine residues. Both proteins were expressed in Escherichia coli and purified using metal chelate affinity chromatography. The radiolabelled isoprenyl pyrophosphate substrates, [^3H]farnesyl pyrophosphate and [^3H]geranylgeranyl pyrophosphate, were purchased from DuPont/New England Nuclear.
# Several methods for measuring famesyl protein transferase activity have been described (Reiss et al 1990, Cell 62: 81; Schaber et al 1990, J. Biol. Chem. 265: 14701; Manne et al 1990, PNAS 87: 7541; and Barbacid & Manne 1993, U.S. Patent No. 5,185,248). […] The reaction was allowed to proceed for 30 minutes at room temperature and then stopped with 0.5 ml of 4% sodium dodecyl sulfate (SDS) followed by 0.5 ml of cold 30% TCA. Samples were allowed to sit on ice for 45 minutes and precipitated Ras protein was then collected on GF/C filter paper mats using a Brandel cell harvester. Filter mats were washed once with 6% TCA, 2% SDS and radioactivity was measured in a Wallac 1204 Betaplate BS liquid scintillation counter. Percent inhibition was calculated relative to the DMSO vehicle control.
# T1 sequence (Q02293 whole entry, one chain of several): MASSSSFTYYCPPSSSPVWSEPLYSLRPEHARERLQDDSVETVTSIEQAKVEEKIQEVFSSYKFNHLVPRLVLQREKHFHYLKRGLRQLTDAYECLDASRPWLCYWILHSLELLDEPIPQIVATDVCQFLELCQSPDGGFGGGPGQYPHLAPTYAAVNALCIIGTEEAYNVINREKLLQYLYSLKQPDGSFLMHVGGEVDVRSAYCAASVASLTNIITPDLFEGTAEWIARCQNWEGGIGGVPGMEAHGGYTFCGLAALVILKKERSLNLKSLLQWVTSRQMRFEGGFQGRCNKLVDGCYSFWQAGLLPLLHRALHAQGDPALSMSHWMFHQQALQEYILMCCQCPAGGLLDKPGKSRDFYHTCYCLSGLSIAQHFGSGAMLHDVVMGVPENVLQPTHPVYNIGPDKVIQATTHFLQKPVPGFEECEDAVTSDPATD
row,IC50 [nM],Compound
1,19,"COC(=O)CCCC(=O)N1CCC([C@H]2c3ncc(Br)cc3CCc3cc(Cl)cc(Br)c32)CC1 [Example 51, (+)-METHYL 4-(3,10-DIBROMO-8-CHLORO-6,11-DIHYDRO-5H-BENZO[5,6]CYCLO-HEPTA[1,2-b]PYRIDIN-11(R)-YL)-DELTA-OXO-1-PIPERIDININE PENTANOATE]"
2,10,"NC(=O)CCCC(=O)N1CCC([C@H]2c3ncc(Br)cc3CCc3cc(Cl)cc(Br)c32)CC1 [Example 53, (+)-4-(3,10-DIBROMO-8-CHLORO-6,11-DIHYDRO-5H-BENZO[5,6]CYCLO-HEPTA[1,2-b]PYRIDIN-11(R)-YL)-DELTA-OXO-1-PIPERIDININE PENTANAMIDE]"
3,15,"COC(=O)CCCCC(=O)N1CCC([C@H]2c3ncc(Br)cc3CCc3cc(Cl)cc(Br)c32)CC1 [Example 54, (+)-METHYL 4-(3,10-DIBROMO-8-CHLORO-6,11-DIHYDRO-5H-BENZO[5,6]CYCLO-HEPTA[1,2-b]PYRIDIN-11(R)-YL)-EPSILON-OXO -1-PIPERIDININE HEXANOATE]"
4,7,"NC(=O)CCCCC(=O)N1CCC([C@H]2c3ncc(Br)cc3CCc3cc(Cl)cc(Br)c32)CC1 [Example 56, (+)-4-(3,10-DIBROMO-8-CHLORO-6,11-DIHYDRO-5H-BENZO[5,6]CYCLO-HEPTA[1,2-b]PYRIDIN-11(R)-YL)-EPSILON-OXO-1-PIPERIDININE HEXANAMIDE]"
5,11,"COC(=O)CCCCCC(=O)N1CCC([C@H]2c3ncc(Br)cc3CCc3cc(Cl)cc(Br)c32)CC1 [Example 57, (+)-METHYL 4-(3,10-DIBROMO-8-CHLORO-6,11-DIHYDRO-5H-BENZO[5,6]CYCLO-HEPTA[1,2-b]PYRIDIN-11(R)-YL)-OMEGA-OXO-1-PIPERIDININE HEPTANOATE]"
6,3.3,"NC(=O)CCCCCC(=O)N1CCC([C@H]2c3ncc(Br)cc3CCc3cc(Cl)cc(Br)c32)CC1 [Example 59, (+)-4-(3,10-DIBROMO-8-CHLORO-6,11-DIHYDRO-5H-BENZO[5,6]CYCLO-HEPTA[1,2-b]PYRIDIN-11(R)-YL)-OMEGA-OXO-1-PIPERIDININE HEPTANAMIDE]"

# Same assay, conditions: read-out: FPT IC50; FPT INHIBITION
row,Compound,IC50 [nM]
1,"O=C(O)CCCC(=O)N1CCC([C@H]2c3ncc(Br)cc3CCc3cc(Cl)cc(Br)c32)CC1 [Example 52, (+)-SODIUM 4-(3,10-DIBROMO-8-CHLORO-6,11-DIHYDRO-5H-BENZO[5,6]CYCLO-HEPTA[1,2-b]PYRIDlN-11(R)-YL)-DELTA-OXO-1-PI[…]]",44
2,"O=C(O)CCCCC(=O)N1CCC([C@H]2c3ncc(Br)cc3CCc3cc(Cl)cc(Br)c32)CC1 [Example 55, (+)-SODIUM 4-(3,10-DIBROMO-8-CHLORO-6,11-DIHYDRO-5H-BENZO[5,6]CYCLO-HEPTA[1,2-b]PYRIDIN-11(R)-YL)-EPSILON-OXO-1-PI[…]]",17
